Consider 14 molecules from article PMC6264179, “Triterpenoids from the Roots of Sanguisorba tenuifolia var. Alba” (Molecules, 2011).

Broadly, the IC50 is the midpoint of a concentration-inhibition curve.

In the test the target is α-Glucosidase (EC.3.2.1.20). Nature of the test: α-Glucosidase inhibition assay (p-nitrophenyl-α-D-glucopyranoside substrate, absorbance at 405 nm). As to conditions: in vitro; pH 6.8 phosphate buffer, 37 °C, 15 min; acarbose positive control; read-out: IC50 (mM ± SEM, mM), α-glucosidase inhibitory activity. The test is classed as biochemical. The procedure: Open column chromatography (CC) was carried out using silica gel (200-300 mesh, Qingdao Marine Chemical Co., Qingdao, China) or octadecyl silica gel (ODS, 25-40 μm, Fuji) as stationary phases. TLC employed precoated silica gel plates (5-7 μm, Qingdao Marine). Preparative HPLC was carried out on a Waters 600 instument equipped with a Waters UV-2487 detector. A Waters Sunfire prep C18 OBD (19 × 250 mm i.d.) column was used for this purpose. The IR spectra were recorded as KBr pellets on a Jasco 302-A spectrometer. Optical rotation was recorded on a Jasco P-2000 polarimeter. HRESIMS were measured on a FTMS-7 instrument (Bruker Daltonics). Melting points were determined on a Gallenkemp apparatus and are uncorrected. The ^1H-, ^13C- and 2D (^1H-^1H COSY, HSQC, HMBC, NOESY) NMR spectra were recorded on a Bruker AMX-400 spectrometer using standard pulse sequences. Chemical shifts are reported in ppm (δ), and scalar coupling are reported in Hz. GC analyses were carried out using a Fuli 9790 instrument equipped with a DM-5 column (0.25 μm, 30 m × 0.25 mm, Dikma, China). α-Glucosidase (EC.3.2.1.20) from Saccharomyces sp. was purchased from Wako Pure Chemical Indutries Ltd. (Wako 076-02841). Other reagents were purchased from various commercial sources.
α-Glucosidase (EC.3.2.1.20) enzyme inhibition assay has been performed according to the literature. α-Glucosidase (25 μL, 0.2 U/mL), various concentrations of samples (25 μL), and 67 mM phosphate buffer (pH 6.8, 175 μL) were mixed at room temperature for 10 min. Reactions were initiated by the addition of 23.2 mM p-nitrophenyl-α-D-glucopyranoside (25 μL). The reaction mixtures were incubated at 37 °C for 15 min in a final volume of 250 μL, and then 1 M Na2CO3 (50 μL) was added to the incubation solution to stop the reaction. The activities of glucosidase were detected in a 96-well plate, and the absorbance was read at 405 nm by a microplate spectrophotometer (Spectra Max, Molecular Devices, USA). The negative control was prepared by adding phosphate buffer instead of the sample in the same way as the test. […] The blank was prepared by adding phosphate buffer instead of α-glucosidase using the same method. The inhibition rates (%) were calculated from the following formula:
[(ODnegative control− ODblank) − (ODtest− ODtest blank)] / ([…]− ODblank) × 100%
`CC1(C)CCC2(C(=O)OC3OC(CO)C(O)C(O)C3O)CCC3(C)C(=CCC4C5(C)CC(=O)C(O)C(C)(C)C5CCC43C)C2C1O` [Compound 1, 2-oxo-3β,19α-dihydroxyolean-12-en-28-oic acid β-D-gluco-pyranosyl ester]: the IC50 was determined as 1.88 ± 0.28 mM.

As for `C[C@@H]1CC[C@]2(C(=O)O)CC[C@]3(C)C(=CCC4[C@@]5(C)CC(=O)[C@H](O)C(C)(C)C5CC[C@]43C)C2[C@@]1(C)O` (some centres unmarked) [Compound 2, 2-oxopomolic acid], the IC50 turned out to be 1.35 ± 0.04 mM.

In the case of `C[C@@H]1CC[C@]2(C(=O)O[C@@H]3O[C@H](CO)[C@@H](O)[C@H](O)[C@H]3O)CC[C@]3(C)C(=CCC4[C@@]5(C)CC(=O)[C@H](O)C(C)(C)C5CC[C@]43C)C2[C@@]1(C)O` (stereo partly drawn) [Compound 3, 2-oxopomolic acid β-D-glucopyranoside], the IC50 turned out to be 2.22 ± 0.06 mM.

As to `CC1CCC2(C(=O)OC3OC(CO)C(O)C(O)C3O)CCC3(C)C(=CCC4C5(C)CC(O)C(=O)C(C)(C)C5CCC43C)C2C1(C)O` [Compound 4, 2α,19α-dihydroxy-3-oxo-12-ursen-28-oic acid β-D-glucopyranosyl ester], the IC50 was 1.56 ± 0.04 mM.

For `C[C@@H]1CC[C@]2(C(=O)O)CC[C@]3(C)C(=CCC4[C@@]5(C)C[C@@H](O)C(=O)C(C)(C)C5CC[C@]43C)C2[C@@]1(C)O` (stereo partly drawn) [Compound 5, 2α,19α-dihydroxy-3-oxo-12-ursen-28-oic acid], the IC50 was determined as 1.23 ± 0.09 mM.

Regarding `CC1(C)C(=O)[C@H](O)C[C@@]2(C)C1CC[C@]1(C)C2CC=C2C3[C@@H](O)C(C)(C)CC[C@]3(C(=O)O[C@@H]3O[C@H](CO)[C@@H](O)[C@H](O)[C@H]3O)CC[C@]21C` (stereo partly drawn) [Compound 6, 2α,19α-dihydroxy-3-oxo-olean-12-en-28-oic acid β-D-glucopyranosyl ester], the 50% inhibitory concentration (IC50) was 2.01 ± 0.06 mM.

Regarding `C[C@@H]1CC[C@]2(C(=O)O[C@@H]3O[C@H](CO)[C@@H](O)[C@H](O)[C@H]3O)CC[C@]3(C)C(=CCC4[C@@]5(C)C[C@@H](O)[C@H](O)C(C)(C)C5CC[C@]43C)C2[C@@]1(C)O` (some centres unmarked) [Compound 7, rosamutin], the IC50 was determined as 3.28 ± 0.08 mM.

Turning to `C[C@@H]1CC[C@]2(C(=O)O)CC[C@]3(C)C(=CC[C@@H]4[C@@]5(C)C[C@@H](O)[C@@H](O)C(C)(C)[C@@H]5CC[C@]43C)[C@@H]2[C@]1(C)O` [Compound 8, euscaphic acid], the IC50 was 0.67 ± 0.09 mM.

As to `C[C@@H]1CC[C@]2(C(=O)O[C@@H]3O[C@H](CO)[C@@H](O)[C@H](O)[C@H]3O)CC[C@]3(C)C(=CCC4[C@@]5(C)C[C@@H](O)[C@@H](O)C(C)(C)C5CC[C@]43C)C2[C@@]1(C)O` (some centres unmarked) [Compound 9, kaji-ichigoside Fl], the half-inhibitory concentration (IC50) was 3.1 ± 0.24 mM.

`CC1(C)CC[C@]2(C(=O)O[C@@H]3O[C@H](CO)[C@@H](O)[C@H](O)[C@H]3O)CC[C@]3(C)C(=CCC4[C@@]5(C)C[C@@H](O)[C@H](O)C(C)(C)C5CC[C@]43C)C2[C@H]1O` (some centres unmarked) [Compound 10, 24-deoxysericoside]: the concentration for half-maximal inhibition (IC50) worked out at 3.52 ± 0.16 mM.

Consider `C[C@@H]1CC[C@]2(C(=O)O)CC[C@]3(C)C(=CCC4[C@@]5(C)CC[C@H](OC(=O)C=Cc6ccc(O)cc6)C(C)(C)C5CC[C@]43C)C2[C@@H]1C` (some centres unmarked) [Compound 12, p-coumaroylursolic acid], for which the IC50 amounted to 0.62 ± 0.06 mM.

Consider `CC1CCC2(C(=O)OC3OC(CO)C(O)C(O)C3O)CCC3(C)C(=CCC4C5(C)CCC(OC6OCC(O)C(O)C6O)C(C)(C)C5CCC43C)C2C1(C)O` (centres unmarked) [Compound 13, ziyu-glycoside I], for which the concentration for half-maximal inhibition (IC50) amounted to 3.62 ± 0.21 mM.

Consider `C=C1C(C)CCC2(C(=O)OC3OC(CO)C(O)C(O)C3O)CCC3(C)C(=CCC4C5(C)CCC(OC6OCC(O)C(O)C6O)C(C)(C)C5CCC43C)C12` [Compound 14, 3β-[(α-L-arabinopyranosyl)oxy] urs-12,19(29)-dien-28-oic acid 28-β-D-glucopyranosyl ester], for which the 50% inhibitory concentration (IC50) came to 2.87 ± 0.06 mM.

`C[C@@H]1CC[C@]2(C(=O)O)CC[C@]3(C)C(=CC[C@@H]4[C@@]5(C)CC[C@H](O)C(C)(C)[C@@H]5CC[C@]43C)[C@@H]2[C@]1(C)O` [Compound 15, pomolic acid]: the IC50 stood at 1.84 ± 0.12 mM.
